Experimental data reported in US20040122080A1, “Synergist combinations of retinoid receptor ligands and selected cytotoxic agents for treatment of cancer” (priority 2004, published 2004).

How the values were obtained:
MCF7 cells = test: Anchorage-dependent colony formation assay; assay type: cell-based, human; settings: for colony formation and morphology: 6 days exposure, crystal violet
Description: (§1) To determine effects of RAR agonists on anchorage-dependent colony size, number and morphology, MCF7 cells were plated in 6 well plates (500 cells/well) in DMEM supplemented with 10% FBS and grown for 5 days. The medium was then removed and the compounds were added to the medium supplemented with 5% of charcoal stripped FBS (HyClone). The compound containing medium was renewed after 3 days and cultures were allowed to grow an additional 3 days. After 6 days exposure to compounds, colonies were stained with crystal violet. Colonies were counted to quantify colony area and number and photographed under light microscopy to assess effects on colony size and morphology. The results presented are representative of two independent experiments. Immunoblotting MCF-7 cellular lysates were prepared for Western blotting in accordance with procedures described by Sambrook et al. (MOLECULAR CLONING: A LABORATORY MANUAL, 2nd Ed.; Cold Spring Harbor Laboratory Press, Cold Spring Harbor, N. Y. (1989)). Cell lysates were prepared by adding 200 μl of lysis buffer (Tris-HCl, pH 6.8, 20 mM, EDTA 1 mM, NP-40 0.5%) containing a protease inhibitor cocktail (Roche) to each well of 6 well plates. The lysates were then cleared by centrifugation at 10,000 rpm, 4EC for 5 minutes and supernatants were adjusted with Laemmli sample buffer and processed by 10 or 15% SDS-polyacrylamide gel electrophoresis (PAGE), followed by transfer to nitrocellulose membranes (Biorad). Membranes were processed by standard methods and incubated with primary antibodies for 1 hour at room temperature or overnight at 4EC. Bound antibody was visualized using a goat anti-IgG secondary antibody conjugated to HRP and a chemiluminescent detection system (ECL, Amersham Pharmacia Biotech).

[1] = system: MCF7, OVCAR3 and SQCC-Y1 cells; test: Growth inhibition, statements across the three human tumor cell lines; assay type: cell-based; settings: co-treatment with paclitaxel, Table 1
Description: (§2) Cellular proliferation was quantified using [^3H] thymidine incorporation. Cells were plated in 96 well plates in media containing 10% fetal bovine serum (FBS) and allowed to adhere overnight. Cell medium was removed the following day and the indicated compounds were added to fresh medium supplemented with 10% of charcoal stripped FBS (HyClone). Compound-containing medium was renewed after 3 days exposure. After 6 day treatment, 4 μCi/ml of [^3H]thymidine (NEN Life Science Products) were added to each well for 2 to 4 hours. The cells were then trypsinized and harvested on GF/B glass fiber filters. [^3H]thymidine incorporated into the DNA was measured in a scintillation Topcount counter (Packard). The results were expressed as percent inhibition compared to the DMSO vehicle.

[2] = system: Jun N-terminal Kinase (JNK); test: Jun N-terminal Kinase assay (immunoprecipitated JNK from MCF7 cells); assay type: cell-based, human
Description: Activity of JNK was measured in accordance with procedures described by Coso et al. (Cell 1995 81:1137-1146) with minor modifications. MCF-7 cells were plated in 6-well plates in DMEM supplemented with 10% FBS and allowed to adhere overnight. The next day, the cells were switched to DMEM supplemented with 0.5% charcoal-stripped FBS (HyClone) and 100 nM of indicated retinoids or 0.1% DMSO was added to the cells for 24 hours before an additional 2 to 3 hours incubation in the presence of 1 μM of paclitaxel. Cell lysates was prepared from each well as described and cleared by centrifugation. JNK was immunoprecipitated from each lysate by incubating overnight at 4° C. with 1 μg of anti-hJNK (Pharmingen) and 25 μl of protein G agarose beads (Gibco-BRL) previously washed with the lysis buffer. Immune complexes were pelleted by centrifugation 2 minutes at 10,000 rpm 4° C. and washed 3 times with PBS containing 1% NP40 and 2 mM of Na3VO4, once with 100 mM Tris-HCl pH7.5, 0.5 mM LiCl and once with Kinase Reaction Buffer (KRB: 12.5 mM MOPS pH7.5, 12.5 mM β-glycerolphosphate, 7.5 mM MgCl2, 0.5 mM EGTA, 0.5 mM NaF, 0.5 mM Na3VO4). […] The kinase reaction was terminated by adding 10 μl of Laemmli sample buffer. resolved by 10% SDS-PAGE and phosphorylated GST-c-Jun visualized by autoradiography and quantified by densitometry. […]

[3] = system: AP1 transcriptional activity; test: AP1 reporter assay, MCF7 cells with (AP1)5x-tk-Luc; assay type: cell-based, human
Description: AP1 transcriptional activity was assessed in MCF7 cells stably transfected with (AP1)5x-tk-Luc reporter gene (IGBMC, France). (AP1)5x corresponds to the collagenase gene AP1 response element repeated 5 times in tandem, tk is the minimal thymidine kinase promoter, and Luc the coding sequence of the luciferase gene. MCF7 cells were plated in 12-well plates at a density of 400,000 cells per well in DMEM supplemented with 10% FBS and allowed to adhere overnight. The next day, the medium was removed, the cells were washed with PBS and supplemented with DMEM medium containing 0.5% of charcoal stripped FBS (HyClone). […] The luciferase activity was measured by using Luc-lite system from Packard according to manufacturer's recommendations. Results are expressed as percent activity compared to PMA (10 nM) which was assigned as 100% activity. The data presented are the mean ± sem (standard error of the mean)of 3 independent experiments.

MCF7 = test: Mitogenic assay, growth inhibition ([3H]-thymidine incorporation), retinoid/paclitaxel co-treatment; assay type: cell-based, human
Description: as §2

OVCAR3 = test: as above; assay type: cell-based, human
Description: as §2

SQCC-Y1 = test: as above; assay type: cell-based, human
Description: as §2

Bcl-2 = Bcl-2 expression and phosphorylation (immunoblotting); assay type: cell-based, human; settings: MCF7; single agent
Description: as §1, with “The lysates were then cleared by centrifugation at 10,000 rpm, 4EC for 5 minutes and supernatants were adjusted with Laemmli sample buffer and processed by 10 or 15% SDS-polyacrylamide gel electrophoresis (PAGE), followed by transfer to nitrocellulose membranes (Biorad). Membranes were processed by standard methods and incubated with primary antibodies for 1 hour at room temperature or overnight at 4EC. Bound antibody was visualized using a goat anti-IgG secondary antibody conjugated to HRP and a chemiluminescent detection system (ECL, Amersham Pharmacia Biotech).” left out

tubulin = test: Tubulin polymerization assay in MCF7 cells; assay type: cell-based, human; settings: single agent, Western blotting of soluble and polymerized tubulin
Description: The effects of retinoid and paclitaxel exposure on free and polymerized tubulin levels were determined in accordance with procedures described by Giannakakou et al. (J. Biol. Chem. 1997 272:17118-17125). MCF7 cells were plated in 6 well plates in DMEM supplemented with 10% FBS and allowed to adhere overnight. Cell medium was removed the following day and the indicated compounds were added to fresh medium supplemented with 5% of charcoal stripped FBS (HyClone). The cells were grown for 3 days in the presence of the retinoids before paclitaxel was added for 1 hour. Soluble and polymerized tubulin were extracted and respective levels were assessed by Western blotting as described above using anti-(tubulin antibodies (n=2).

[4] = Homo sapiens, 144 h, maximal inhibition, paclitaxel co-treated with the labelled retinoid (none = paclitaxel alone), read-out: Efficacy (percent inhibition compared with DMSO)

## CC1=C(/C=C/C(C)=C/C=C/C(C)=C/C(=O)O)C(C)(C)CCC1 [ATRA, all trans retinoic acid]
MCF7 cells; MCF7
  colony formation and morphology: impaired colony formation
MCF7 cells; MCF7 colonies
  apoptosis in treated colonies: high level of apoptosis

## Cc1cccc(C2=CC(=O)C(C)(C)c3cc4ccc(-c5ccc(C(=O)O)cc5)cc4cc32)c1 [Formula II, 4-(5,6-dihydro-5,5-dimethyl-6-oxo-8-(3-methyl-phenyl)-anthracen-2-yl)-benzoic acid]
[1]
  effect on the effective dose of paclitaxel required to induce cytotoxicity: lowered the effective dose of paclitaxel required to induce cytotoxicity
MCF7 cells; MCF7
  colony formation and morphology: strongly impaired colony formation
MCF7 cells; MCF7, pre-treatment for three days
  sensitivity of the cells to paclitaxel: significantly enhanced the sensitivity of the cells to paclitaxel
[2]; combination with paclitaxel
  effect on paclitaxel-induced JNK activity: did not modify paclitaxel-induced JNK activity
[3]; combination with paclitaxel
  effect on paclitaxel/PMA-induced AP1 activity: did enhance the effects of paclitaxel/PMA or AP1 activity

## CC(C)(C)/C=C\C1=CCC(C)(C)c2ccc(/C=C/c3ccc(C(=O)O)cc3)cc21 [Formula Ia]
MCF7
  decrease of the IC50 of paclitaxel in the presence of the retinoid: 8 fold
OVCAR3
  decrease of the IC50 of paclitaxel in the presence of the retinoid: 15 fold
SQCC-Y1
  decrease of the IC50 of paclitaxel in the presence of the retinoid: 32 fold
[1]
  effect on the effective dose of paclitaxel required to induce cytotoxicity: dramatically lowered the effective dose of paclitaxel required to induce cytotoxicity
MCF7 cells; MCF7
  colony formation and morphology: dramatic change in the morphology of both the colonies and the cells
[3]; Homo sapiens, MCF7, at 50 nM, PMA 10 nM, 6 hours, read-out: inhibition of PMA-induced AP1 reporter activity, maximum
  inhibition at 0.05 µM: 30 to 45%

## CC(=O)O[C@H]1C(=O)[C@@]2(C)[C@H]([C@H](OC(=O)c3ccccc3)[C@]3(O)C[C@H](OC(=O)[C@H](O)[C@@H](NC(=O)c4ccccc4)c4ccccc4)C(C)=C1C3(C)C)[C@]1(OC(C)=O)CO[C@@H]1C[C@@H]2O [paclitaxel]
MCF7; [4]
  Emax: 100%
OVCAR3; Homo sapiens, OVCAR-3, 144 h, 6 day treatment, paclitaxel co-treated with the labelled retinoid (none = paclitaxel alone), mean of 2 to 5 experiments
  IC50: 0.6 nM
OVCAR3; Homo sapiens, OVCAR-3, 144 h, maximal inhibition, paclitaxel co-treated with the labelled retinoid (none = paclitaxel alone), read-out: Efficacy (percent inhibition compared with DMSO)
  Emax: 99%
SQCC-Y1; Homo sapiens, 144 h, 6 day treatment, paclitaxel co-treated with the labelled retinoid (none = paclitaxel alone), mean of 2 to 5 experiments
  IC50: 0.16 nM
SQCC-Y1; [4]
  Emax: 100%
Bcl-2
  phosphorylation of Bcl-2: dose-dependent increase
tubulin
  polymerization of tubulin: dose-dependent polymerization of tubulin
[2]; single agent, paclitaxel 1 μM 2 to 3 hours, retinoids 100 nM 24 hours
  increase in JNK activity: 2.5 fold
[3]; single agent, paclitaxel 1 μM, PMA 10 nM
  enhancement of PMA-induced AP1 transcriptional activity: 20%
